Measured values reported in US7541367B2, “3-benzoimidazolyl-pyrazolopyridines useful in treating kinase disorders” (Janssen Pharmaceutica, N.V., priority 2005, dated 2009).

What was measured:
[1] = test system: HeLa cervical adenocarcinoma; experiment: Cell Proliferation Inhibition Assay (14C-thymidine incorporation), HeLa; format: cell-based; settings: Homo sapiens, HeLa, HeLa cells;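 further: test compound in DMSO added to cells seeded in scintillating 96-well plates, DMSO-only wells as control, uptake of methyl 14C-thymidine into new DNA counted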
HER2 = molecular target: T1, HER2 (Homo sapiens, UniProt P04626); experiment: HER2 kinase screening assay (33P-ATP FlashPlate); format: biochemical; settings: GST-HIS6 HER-2 aa 679 to 1255; 10 μM ATP; 1 hr at 30° C;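 further: Biotin-poly(GT) 4:1 peptide captured on streptavidin FlashPlate, 33P transfer from γ-ATP read by scintillation counting, lower incorporation means inhibition, 1% DMSO final, 100 µL reaction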
T1 construct: GST (Glutathione-S-Transferase) (N); HIS6 (N); thrombin cleavage site (N); purchased Proqinase, Freiburg, Germany

RET = molecular target: T2, RET (Homo sapiens, UniProt P07949); experiment: RET kinase screening assay (33P-ATP FlashPlate); format: biochemical; settings: human RET kinase domain; 10 μM ATP; 1 hr at 30° C;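 further: biotinylated peptide substrate captured on streptavidin FlashPlate, 33P phosphate transfer read by scintillation counting, 1% DMSO, lower incorporation means inhibition, percent relative to per-plate maximum and minimum signals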
T2 construct: polyhistidine (N)
T2 sequence (P07949 658-1114 limits assumed): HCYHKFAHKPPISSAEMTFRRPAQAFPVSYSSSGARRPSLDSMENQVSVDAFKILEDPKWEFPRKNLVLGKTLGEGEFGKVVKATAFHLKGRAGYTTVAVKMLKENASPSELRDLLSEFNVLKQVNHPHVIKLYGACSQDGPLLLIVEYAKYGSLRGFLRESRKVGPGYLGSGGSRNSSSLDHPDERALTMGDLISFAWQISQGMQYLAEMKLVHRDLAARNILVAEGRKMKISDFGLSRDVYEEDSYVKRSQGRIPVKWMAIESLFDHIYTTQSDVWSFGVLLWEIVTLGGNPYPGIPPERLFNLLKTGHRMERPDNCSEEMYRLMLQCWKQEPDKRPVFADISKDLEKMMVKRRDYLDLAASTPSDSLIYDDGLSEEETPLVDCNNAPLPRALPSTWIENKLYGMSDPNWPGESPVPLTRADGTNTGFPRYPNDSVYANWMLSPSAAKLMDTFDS

c-Src kinase = molecular target: T3, c-Src kinase (Homo sapiens, UniProt P12931); experiment: c-Src Kinase Assay; format: biochemical; settings: 5 μM ATP
T3 construct: purchased Upstate Biotechnology, Lake Placid, N.Y
Method: A mixture of a 10× kinase buffer (80 mM MOPS at pH 7.0, 2 mM EDTA and 100 mM Magnesium Chloride), ATP (5 μM final from a 10 mM stock), a Cdc2 peptide […] (100 μM final from a 2.5 mM stock), γ-^33P ATP (10 μCi/μL stock) and water (for a total of 20 μL/well) was added to each well of a Streptavidin Flashplate.
Test compound in 100% DMSO (0.5 μL) was added to the appropriate wells. Diluted c-Src kinase (human) (Accession Number SWISS-PROT P12931) (Upstate Biotechnology, Lake Placid, N.Y.) (diluted in a buffer consisting of 20 mM MOPS at pH 7.0, 1 mM EDTA, β-mercaptoethanol (0.1%), Brij-35 (0.01%), glycerol (5%), and 1 mg/mL bovine serum albumin) (2.5 μL) was added to the wells to initiate the reactions. The reaction plates were incubated at 30° C. for 40 min. The reaction was terminated by the addition of a 3% phosphoric acid solution (5 μL). The reaction product (10 μL) was spotted onto a P30 filtermat and washed for 5 minutes in phosphoric acid (75 mM). The wash sequence was repeated two more times, followed with one final wash in methanol. The plates were then dried, sealed and read on the TopCount scintillation counter after adding 30 μL scintillation fluid.
(§1) A maximum and minimum signal for the assay was determined on each plate. The percent inhibition of a test compound was calculated according to the formula: […]
For a series of test concentrations, the IC50 was derived by graphing percent inhibition against the log of the concentrations tested for a given compound with results shown in Table 2
(§2) For compounds with multiple values, each value represents a separate assay result.

HCT-116 colon carcinoma = experiment: Cell Proliferation Inhibition Assay (14C-thymidine incorporation), HCT-116; format: cell-based; settings: Homo sapiens, HCT-116, HCT-116 cells;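 further: proliferation measured as methyl 14C-thymidine uptake into new DNA, counted in 96-well scintillating microplates, compared with DMSO-only control wells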
A375 malignant melanoma = experiment: Cell Proliferation Inhibition Assay (14C-thymidine incorporation), A375; format: cell-based; settings: Homo sapiens, A-375, A375 cells;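 further: proliferation measured by radiolabelled thymidine uptake into new DNA, counted in scintillating 96-well plates, compound-treated wells compared with DMSO-only control wells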
VEGF-R2 = molecular target: T4, VEGF-R2 (Rattus norvegicus, UniProt O08775); experiment: VEGF-R2 kinase screening assay (33P-ATP FlashPlate); format: biochemical; settings: rat VEGF-R2 kinase domain; 10 μM ATP; 1 hr at 30° C;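 further: Read-out is ³³P incorporation from ³³P-γ-ATP into biotinylated peptide substrate captured on streptavidin FlashPlate, counted by scintillation, 1% DMSO final, inhibition scaled between per-plate maximum and minimum signals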
T4 construct: polyhistidine (N)

Aurora-A = molecular target: T5, Aurora-A (Mus musculus, UniProt P97477); experiment: Aurora-A kinase screening assay (33P-ATP FlashPlate); format: biochemical; settings: 10 μM ATP, 1 hr at 30° C;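 further: His-tagged mouse Aurora-A phosphorylating a biotinylated peptide captured on streptavidin plates, read as 33P uptake by scintillation counting, 1% DMSO, inhibition scaled between per-plate maximum and minimum signals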
T5 construct: polyhistidine (N)
T5 sequence (P97477 1-395): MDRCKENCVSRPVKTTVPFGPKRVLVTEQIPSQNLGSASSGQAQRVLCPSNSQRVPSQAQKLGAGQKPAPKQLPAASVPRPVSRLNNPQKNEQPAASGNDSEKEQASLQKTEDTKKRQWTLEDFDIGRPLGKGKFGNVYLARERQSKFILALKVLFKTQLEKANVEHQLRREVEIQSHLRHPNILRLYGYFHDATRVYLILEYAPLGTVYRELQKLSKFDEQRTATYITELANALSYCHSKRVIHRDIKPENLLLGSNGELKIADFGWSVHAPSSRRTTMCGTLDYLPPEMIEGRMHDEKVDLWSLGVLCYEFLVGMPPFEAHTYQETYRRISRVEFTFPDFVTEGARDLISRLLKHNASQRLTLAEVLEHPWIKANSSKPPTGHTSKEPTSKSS

CDK1 = molecular target: T6, CDK1 (Homo sapiens, UniProt P06493); experiment: CDK-1 kinase screening assay (33P-ATP FlashPlate); format: biochemical; settings: human CDK1 with cyclin B; 10 μM ATP; 1 hr at 30° C
T6 construct: purchased New England Biolabs, Beverly, Mass; 6020; host or cells: insect cells

Lyn kinase = molecular target: T7, Lyn kinase (Homo sapiens, UniProt P07948); experiment: Lyn Kinase Assay; format: biochemical; settings: 5 μM ATP
T7 construct: purchased Upstate Biotechnology, Lake Placid, N.Y
Method: Test compound in 100% DMSO (0.5 μL) was added to the appropriate wells. Diluted Lyn kinase (human) (Accession Number EMBL M16038) (Upstate Biotechnology, Lake Placid, N.Y.) (diluted in a buffer consisting of 50 mM Tris at pH 7.5, 0.1 mM EGTA, Sodium Vanadate (0.1 mM), β-mercaptoethanol (0.1%) and 1 mg/mL bovine serum albumin) (2.5 μL) was added to the wells to initiate the reactions.
The reaction plates were incubated at 30° C. for 40 min. The reaction was terminated by the addition of a 3% phosphoric acid solution (5 μL). The reaction product (10 μL) was spotted onto a P30 filtermat and washed for 5 minutes in phosphoric acid (75 mM). The wash sequence was repeated two more times, followed with one final wash in methanol. The plates were then dried, sealed and read on the TopCount scintillation counter after adding 30 μL scintillation fluid.
as §1
For a series of test concentrations, the IC50 was derived by graphing percent inhibition against the log of the concentrations tested for a given compound with results shown in Table 3
as §2

T1 sequence (P04626 679-1255): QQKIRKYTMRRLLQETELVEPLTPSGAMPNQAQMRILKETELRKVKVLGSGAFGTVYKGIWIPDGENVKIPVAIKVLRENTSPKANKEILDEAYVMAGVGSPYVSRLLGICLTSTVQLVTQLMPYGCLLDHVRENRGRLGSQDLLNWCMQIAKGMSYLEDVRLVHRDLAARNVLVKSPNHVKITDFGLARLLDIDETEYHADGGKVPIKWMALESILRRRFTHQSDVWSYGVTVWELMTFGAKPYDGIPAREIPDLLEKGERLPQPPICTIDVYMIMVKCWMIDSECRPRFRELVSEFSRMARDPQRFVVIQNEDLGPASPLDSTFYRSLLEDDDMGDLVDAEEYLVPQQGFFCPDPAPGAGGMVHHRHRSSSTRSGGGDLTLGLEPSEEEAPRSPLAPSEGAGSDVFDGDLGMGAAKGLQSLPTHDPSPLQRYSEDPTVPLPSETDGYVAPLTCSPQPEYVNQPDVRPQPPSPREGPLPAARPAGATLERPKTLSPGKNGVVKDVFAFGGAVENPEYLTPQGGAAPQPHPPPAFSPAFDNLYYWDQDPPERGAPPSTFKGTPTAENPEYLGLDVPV
T3 sequence (P12931 whole entry): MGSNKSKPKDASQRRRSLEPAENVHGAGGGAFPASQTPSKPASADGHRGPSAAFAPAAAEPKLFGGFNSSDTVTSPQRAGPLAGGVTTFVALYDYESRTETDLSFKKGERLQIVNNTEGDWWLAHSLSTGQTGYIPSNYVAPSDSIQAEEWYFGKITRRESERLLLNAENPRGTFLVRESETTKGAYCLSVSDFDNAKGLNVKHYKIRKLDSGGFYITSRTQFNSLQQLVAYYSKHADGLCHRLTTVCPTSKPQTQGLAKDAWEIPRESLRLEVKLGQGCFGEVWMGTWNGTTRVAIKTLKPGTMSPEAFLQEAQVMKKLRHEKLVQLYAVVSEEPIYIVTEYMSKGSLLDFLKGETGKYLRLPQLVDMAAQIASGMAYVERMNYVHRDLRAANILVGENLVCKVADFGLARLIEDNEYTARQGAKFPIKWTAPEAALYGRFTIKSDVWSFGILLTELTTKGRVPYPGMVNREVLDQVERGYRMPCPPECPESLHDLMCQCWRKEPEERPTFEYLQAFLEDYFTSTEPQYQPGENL
T4 sequence (O08775 786-1343): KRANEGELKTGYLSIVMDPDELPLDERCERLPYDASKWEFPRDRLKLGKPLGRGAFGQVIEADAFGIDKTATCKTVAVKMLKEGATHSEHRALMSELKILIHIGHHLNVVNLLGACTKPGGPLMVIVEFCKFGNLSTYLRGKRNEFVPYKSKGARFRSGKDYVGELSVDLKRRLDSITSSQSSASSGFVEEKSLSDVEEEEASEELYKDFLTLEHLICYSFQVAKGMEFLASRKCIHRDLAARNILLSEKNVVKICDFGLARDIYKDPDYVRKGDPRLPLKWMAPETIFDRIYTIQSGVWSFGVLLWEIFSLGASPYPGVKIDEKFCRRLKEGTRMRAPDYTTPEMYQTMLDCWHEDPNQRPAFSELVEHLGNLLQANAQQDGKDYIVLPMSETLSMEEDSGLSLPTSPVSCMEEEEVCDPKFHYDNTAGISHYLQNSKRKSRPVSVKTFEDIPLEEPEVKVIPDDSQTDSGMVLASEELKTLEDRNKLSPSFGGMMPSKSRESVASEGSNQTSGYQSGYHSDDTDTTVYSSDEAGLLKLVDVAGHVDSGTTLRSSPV
T6 sequence (P06493 whole entry): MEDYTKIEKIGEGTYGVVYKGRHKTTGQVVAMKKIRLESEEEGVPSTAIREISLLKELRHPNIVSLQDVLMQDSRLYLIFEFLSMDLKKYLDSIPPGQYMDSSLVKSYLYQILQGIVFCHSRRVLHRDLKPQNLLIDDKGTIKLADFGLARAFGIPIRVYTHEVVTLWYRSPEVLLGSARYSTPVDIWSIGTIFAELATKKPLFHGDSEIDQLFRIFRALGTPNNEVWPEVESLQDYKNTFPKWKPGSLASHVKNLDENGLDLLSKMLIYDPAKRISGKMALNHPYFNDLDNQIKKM
T6 sequence (P14635 whole entry partner): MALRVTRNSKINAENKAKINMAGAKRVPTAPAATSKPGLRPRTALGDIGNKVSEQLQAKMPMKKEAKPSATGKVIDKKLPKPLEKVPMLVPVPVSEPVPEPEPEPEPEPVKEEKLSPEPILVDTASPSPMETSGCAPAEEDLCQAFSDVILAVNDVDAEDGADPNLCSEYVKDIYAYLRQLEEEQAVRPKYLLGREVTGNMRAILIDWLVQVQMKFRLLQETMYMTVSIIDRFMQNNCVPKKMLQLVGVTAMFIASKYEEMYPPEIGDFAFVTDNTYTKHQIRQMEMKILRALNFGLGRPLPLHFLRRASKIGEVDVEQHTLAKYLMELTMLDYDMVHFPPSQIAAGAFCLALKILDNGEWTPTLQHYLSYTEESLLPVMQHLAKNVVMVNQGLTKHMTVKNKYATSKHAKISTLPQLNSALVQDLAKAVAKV
T7 sequence (P07948 whole entry): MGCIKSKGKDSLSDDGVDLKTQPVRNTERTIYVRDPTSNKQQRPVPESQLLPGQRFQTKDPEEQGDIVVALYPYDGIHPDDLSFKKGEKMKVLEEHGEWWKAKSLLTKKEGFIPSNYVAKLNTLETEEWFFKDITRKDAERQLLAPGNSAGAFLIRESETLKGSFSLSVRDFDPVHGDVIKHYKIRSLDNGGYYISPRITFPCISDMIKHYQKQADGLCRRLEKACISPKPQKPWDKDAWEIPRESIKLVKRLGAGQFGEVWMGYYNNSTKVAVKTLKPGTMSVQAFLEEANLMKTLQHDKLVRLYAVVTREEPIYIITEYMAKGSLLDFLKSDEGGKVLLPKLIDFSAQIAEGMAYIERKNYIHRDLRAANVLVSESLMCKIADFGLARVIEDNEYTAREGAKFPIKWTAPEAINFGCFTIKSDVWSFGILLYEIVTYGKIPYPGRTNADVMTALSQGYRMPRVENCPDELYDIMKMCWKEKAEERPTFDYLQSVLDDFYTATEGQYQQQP

SMILES	IC50 [1]	IC50 (HER2)	IC50 (RET)	IC50 (c-Src kinase)	IC50 (HCT-116 colon carcinoma)	IC50 (A375 malignant melanoma)	IC50 (VEGF-R2)	IC50 (Aurora-A)	IC50 (CDK1)	IC50 (Lyn kinase)
COCc1cccc2[nH]c(-c3n[nH]c4ncc(-c5cncc(CNCCN6CCOCC6)c5)cc34)nc12 [Cpd 74, {5-[3-(4-methoxymethyl-1H-benzoimidazol-2-yl)-1H-pyrazolo[3,4-b]pyridin-5-yl]-pyridin-3-ylmethyl}-(2-morpholin-4-yl-ethyl)-amine]	4780 nM	~100000 nM	~100000 nM	954 nM	386 nM	459 nM	284 nM	6820 nM	551 nM	–
COCc1cccc2[nH]c(-c3n[nH]c4ncc(-c5cncc(CNCCN(C)C)c5)cc34)nc12 [Cpd 76, N′-{5-[3-(4-methoxymethyl-1H-benzoimidazol-2-yl)-1H-pyrazolo[3,4-b]pyridin-5-yl]-pyridin-3-ylmethyl}-N,N-dimethyl-ethane-1,2-diamine]	10100 nM	> 100000 nM	> 100000 nM	1010 nM	255 nM	178 nM	1370 nM	6600 nM	595 nM	–
OCCOc1ccc2[nH]c(-c3n[nH]c4ncc(-c5cccnc5)cc34)nc2c1 [Cpd 95, 2-[2-(5-pyridin-3-yl-1H-pyrazolo[3,4-b]pyridine-3-yl)-1H-benzoimidazol-5-yloxyl]-ethanol]	1930 nM	> 100000 nM	> 1000 nM	74 nM	1410 nM	2650 nM	–	229 nM	3.4 nM	–
COCc1cccc2[nH]c(-c3n[nH]c4ncc(-c5cncc(CN)c5)cc34)nc12 [Cpd 73, C-{5-[3-(4-methoxymethyl-1H-benzoimidazol-2-yl)-1H-pyrazolo[3,4-b]pyridin-5-yl]-pyridin-3-yl}-methylamine]	2550 nM	> 10000 nM	> 10000 nM	823 nM	412 nM	678 nM	> 10000 nM	4750 nM	42.7 nM	–
COCc1cccc2[nH]c(-c3n[nH]c4ncc(-c5cncc(C=O)c5)cc34)nc12 [Cpd 41, 5-[3-(4-methoxymethyl-1H-benzoimidazol-2-yl)-1H-pyrazolo[3,4-b]pyridin-5-yl]-pyridine-3-carbaldehyde]	1220 nM	~100000 nM	> 100000 nM	92.5 nM	161 nM	265 nM	> 1000 nM	248 nM	231 nM	–
COCc1cccc2[nH]c(-c3n[nH]c4ncc(-c5cc[nH]c5)cc34)nc12 [Cpd 40, 3-(4-methoxymethyl-1H-benzoimidazol-2-yl)-5-(1H-pyrrol-3-yl)-1H-pyrazolo[3,4-b]pyridine]	1220 nM	> 100000 nM	–	327 nM	56.5 nM	73.7 nM	462 nM	~1000 nM	1190 nM	–
COc1ccc2[nH]c(-c3n[nH]c4ncc(-c5cncc(CNC(C)C)c5)cc34)nc2c1 [Cpd 102, isopropyl-{5-[3-(5-methoxy-1H-benzoimidazol-2-yl)-1H-pyrazolo[3,4-b]pyridin-5-yl]-pyridin-3-ylmethyl}-amine]	47.2 nM	10700 nM	~1000 nM	11.7 nM	106 nM	120 nM	269 nM	359 nM	3.2 nM	–
COCc1cccc2[nH]c(-c3n[nH]c4ncc(-c5cncc(CNCCO)c5)cc34)nc12 [Cpd 77, 2-({5-[3-(4-methoxymethyl-1H-benzoimidazol-2-yl)-1H-pyrazolo[3,4-b]pyridin-5-yl]-pyridin-3-ylmethyl}-amino)-ethanol]	1620 nM	> 10000 nM	> 10000 nM	183 nM	643 nM	1610 nM	349 nM	3180 nM	13 nM	–
Fc1ccc2nc(-c3n[nH]c4ncc(-c5cccnc5)cc34)[nH]c2c1 [Cpd 92, 3-(6-fluoro-1H-benzoimidazol-2-yl)-5-pyridin-3-yl-1H-pyrazolo[3,4-b]pyridine]	698 nM	–	–	97.9 nM	348 nM	467 nM	–	–	6.57 nM	> 100000 nM
FC(F)(F)Oc1ccc2[nH]c(-c3n[nH]c4ncc(-c5cccnc5)cc34)nc2c1 [Cpd 94, 5-pyridin-3-yl-3-(5-trifluoromethoxy-1H-benzoimidazol-2-yl)-1H-pyrazolo[3,4-b]pyridine]	799 nM	> 100000 nM	> 100000 nM	756 nM	519 nM	645 nM	–	> 10000 nM	6 nM	–
CCNCc1cncc(-c2cnc3[nH]nc(-c4nc5c(COC)cccc5[nH]4)c3c2)c1 [Cpd 42, ethyl-{5-[3-(4-methoxymethyl-1H-benzoimidazol-2-yl)-1H-pyrazolo[3,4-b]pyridin-5-yl]-pyridin-3-ylmethyl}-amine]	298 nM	> 10000 nM	7630 nM	358 nM	280 nM	239 nM	~1000 nM	4460 nM	9.8 nM	–
COCCNCc1cncc(-c2cnc3[nH]nc(-c4nc5c(COC)cccc5[nH]4)c3c2)c1 [Cpd 75, (2-methoxy-ethyl)-{5-[3-(4-methoxymethyl-1H-benzoimidazol-2-yl)-1H-pyrazolo[3,4-b]pyridin-5-yl]-pyridin-3-ylmethyl}-amine]	594 nM	> 10000 nM	> 10000 nM	378 nM	163 nM	205 nM	1640 nM	4500 nM	63.6 nM	–
